Assay results taken from patent US8273762B2, “Hexahydro-pyrrolo-isoquinoline compounds” (Janssen Pharmaceutica NV, priority 2005, dated 2012).
pKi: −log10 of the molar value.

Molecular target: T1, cloned human H3 receptor, stably expressed in SK-N-MC cells (Homo sapiens, UniProt Q9Y5N1)
T1 construct: expressed in transfected cells
Experiment: H3 receptor binding (N-[3H]-α-methylhistamine displacement)
Conditions: SK-N-MC membranes, 0.8 nM N-[3H]-α-methylhistamine

T1 sequence (Q9Y5N1 whole entry): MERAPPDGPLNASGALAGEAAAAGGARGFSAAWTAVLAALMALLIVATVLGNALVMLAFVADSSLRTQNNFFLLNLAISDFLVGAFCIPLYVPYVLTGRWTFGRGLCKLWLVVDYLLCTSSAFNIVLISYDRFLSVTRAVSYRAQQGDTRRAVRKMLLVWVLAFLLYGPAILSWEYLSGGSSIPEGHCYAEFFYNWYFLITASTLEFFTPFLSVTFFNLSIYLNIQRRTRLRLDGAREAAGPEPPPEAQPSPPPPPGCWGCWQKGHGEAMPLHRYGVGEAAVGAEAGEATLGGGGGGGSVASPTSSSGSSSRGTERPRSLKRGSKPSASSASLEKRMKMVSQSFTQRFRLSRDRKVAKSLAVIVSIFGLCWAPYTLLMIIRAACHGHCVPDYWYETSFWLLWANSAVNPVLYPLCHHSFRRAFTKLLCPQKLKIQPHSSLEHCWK

SMILES	pKi
Cc1ccc([C@@H]2CN3CCC[C@H]3c3cccc(OCCCN4CCCCC4)c32)cc1 (relative stereo) [Example 5C, Trans-7-(3-Piperidine-1-yl-propoxy)-6-p-tolyl-1,2,3,5,6,10b-hexahydro-pyrrolo[2,1-a]isoquinoline]	7.07
c1cnn(-c2ccc([C@H]3CN4CCC[C@H]4c4cc(OCCCN5CCOCC5)ccc43)cc2)c1 (relative stereo) [Example 49]	8.30
FC(F)(F)Sc1cccc([C@H]2CN3CCC[C@H]3c3cc(OCCCN4CCOCC4)ccc32)c1 (relative stereo) [Example 62]	8.22
c1csc([C@H]2CN3CCC[C@H]3c3cc(OCCCN4CCOCC4)ccc32)n1 (relative stereo) [Example 53]	8.52
c1cc([C@H]2CN3CCC[C@H]3c3cc(OCCCN4CCOCC4)ccc32)[nH]n1 (relative stereo) [Example 54]	8.40
Oc1ccc([C@H]2CN3CCC[C@H]3c3cc(OCCCN4CCOCC4)ccc32)cn1 (relative stereo) [Example 51B, Trans-5-[9-(3-Morpholin-4-yl-propoxy)-1,2,3,5,6,10b-hexahydro-pyrrolo[2,1-a]isoquinolin-6-yl]-pyridin-2-ol]	8.30
Clc1ccccc1[C@H]1CN2CCC[C@H]2c2cc(OCCCN3CCCCC3)ccc21 (relative stereo) [Example 12B, Trans-6-(2-Chloro-phenyl)-9-(3-piperidin-1-yl-propoxy)-1,2,3,5,6,10b-hexahydro-pyrrolo[2,1-a]isoquinoline]	9.00
c1cnc([C@H]2CN3CCC[C@H]3c3cc(OCCCN4CCOCC4)ccc32)cn1 (relative stereo) [Example 50B, Trans-9-(3-Morpholin-4-yl-propoxy)-6-pyrazin-2-yl-1,2,3,5,6,10b-hexahydro-pyrrolo[2,1-a]isoquinoline]	6.74
c1ccc([C@H]2CN3CCC[C@H]3c3ccc(OCCCN4CCCCC4)cc32)cc1 (relative stereo) [Example 45]	7.80
N#Cc1ccc([C@H]2CN3CCC[C@H]3c3ccc(OCCCN4CCCCC4)cc32)cc1 (relative stereo) [Example 43]	7.52
Clc1ccccc1[C@H]1CN2CCC[C@H]2c2cccc(OCCCN3CCCCC3)c21 (relative stereo) [Example 12D, Trans-6-(2-Chloro-phenyl)-7-(3-piperidin-1-yl-propoxy)-1,2,3,5,6,10b-hexahydro-pyrrolo[2,1-a]isoquinoline]	7.13
c1ccc([C@H]2CN3CCC[C@H]3c3cc(OCCCN4CCCCC4)ccc32)nc1 (relative stereo) [Example 25]	9.10
c1cc([C@@H]2CN3CCC[C@H]3c3cc(OCCCN4CCCCC4)ccc32)ccn1 (relative stereo) [Example 27A, Cis-9-(3-Piperidin-1-yl-propoxy)-6-pyridin-4-yl-1,2,3,5,6,10b-hexahydro-pyrrolo[2,1-a]isoquinoline]	9.00
c1cnc([C@@H]2CN3CCC[C@H]3c3cc(OCCCN4CCOCC4)ccc32)cn1 (relative stereo) [Example 50A, Cis-9-(3-Morpholin-4-yl-propoxy)-6-pyrazin-2-yl-1,2,3,5,6,10b-hexahydro-pyrrolo[2,1-a]isoquinoline]	8.40
c1cn(-c2ccc([C@@H]3CN4CCC[C@H]4c4cc(OCCCN5CCOCC5)ccc43)cc2)cn1 (relative stereo) [Example 48A, Cis-6-(4-Imidazol-1-yl-phenyl)-9-(3-morpholin-4-yl-propoxy)-1,2,3,5,6,10b-hexahydro-pyrrolo[2,1-a]isoquinoline]	8.22
c1ccc([C@@H]2CN3CCC[C@H]3c3ccc(OCCCN4CCCCC4)cc32)cc1 (relative stereo) [Example 44]	9.00
COc1ccc([C@@H]2CN3CCC[C@H]3c3cc(OCCCN4CCOCC4)ccc32)cc1 (racemic) [Example 93]	8.30
FC(F)(F)Sc1ccc([C@H]2CN3CCC[C@H]3c3cc(OCCCN4CCOCC4)ccc32)cc1 (relative stereo) [Example 61]	7.54
c1cn(-c2ccc([C@H]3CN4CCC[C@H]4c4cc(OCCCN5CCOCC5)ccc43)cc2)cn1 (relative stereo) [Example 48B, Trans-6-(4-Imidazol-1-yl-phenyl)-9-(3-morpholin-4-yl-propoxy)-1,2,3,5,6,10b-hexahydro-pyrrolo[2,1-a]isoquinoline]	8.30
O=[N+]([O-])c1ccc([C@@H]2CN3CCC[C@H]3c3cccc(OCCCN4CCCCC4)c32)cc1 (relative stereo) [Example 2C, Trans-6-(4-Nitro-phenyl)-7-(3-piperidin-1-yl-propoxy)-1,2,3,5,6,10b-hexahydro-pyrrolo[2,1-a]isoquinoline]	7.54
Clc1ccc([C@H]2CN3CCC[C@H]3c3cc(OCCCN4CCCCC4)ccc32)cc1 (relative stereo) [Example 66B, Trans-6-(4-chloro-phenyl)-9-(3-piperidin-1-yl-propoxy)-1,2,3,5,6,10b-hexahydro-pyrrolo[2,1-a]isoquinoline]	9.00
CSc1ccc([C@@H]2CN3CCC[C@H]3c3cc(OCCCN4CCCCC4)ccc32)cc1 (relative stereo) [Example 39B, Trans-6-(4-Methylsulfanyl-phenyl)-9-(3-piperidin-1-yl-propoxy)-1,2,3,5,6,10b-hexahydro-pyrrolo[2,1-a]isoquinoline]	9.00

Now from value to compound:

pKi	SMILES
7.01	O=[N+]([O-])c1cccc([C@H]2CN3CCC[C@H]3c3cccc(OCCCN4CCCCC4)c32)c1 (relative stereo) [Example 4C, Cis-6-(3-Nitro-phenyl)-7-(3-piperidin-1-yl-propoxy)-1,2,3,5,6,10b-hexahydro-pyrrolo[2,1-a]isoquinoline]
8.40	COc1ccc([C@H]2CN3CCC[C@H]3c3cc(OCCCN4CCOCC4)ccc32)cc1F (relative stereo) [Example 65]
8.70	c1ccn2c([C@H]3CN4CCC[C@H]4c4cc(OCCCN5CCOCC5)ccc43)cnc2c1 (relative stereo) [Example 55]
9.00	Fc1ccc([C@H]2CN3CCC[C@H]3c3cc(OCCCN4CCCCC4)ccc32)cc1 (relative stereo) [Example 14B, Trans-6-(4-Fluoro-phenyl)-9-(3-piperidin-1-yl-propoxy)-1,2,3,5,6,10b-hexahydro-pyrrolo[2,1-a]isoquinoline]
9.52	c1cc([C@H]2CN3CCC[C@H]3c3cc(OCCCN4CCCCC4)ccc32)ccn1 (relative stereo) [Example 27B, Trans-9-(3-Piperidin-1-yl-propoxy)-6-pyridin-4-yl-1,2,3,5,6,10b-hexahydro-pyrrolo[2,1-a]isoquinoline]
8.70	FC(F)(F)c1ccc([C@@H]2CN3CCC[C@H]3c3cc(OCCCN4CCCCC4)ccc32)cc1 (relative stereo) [Example 7B, Trans-9-(3-Piperidin-1-yl-propoxy)-6-(4-trifluoromethyl-phenyl)-1,2,3,5,6,10b-hexahydro-pyrrolo[2,1-a]isoquinoline]
7.80	CSc1ccc([C@H]2CN3CCC[C@H]3c3cc(OCCCN4CCOCC4)ccc32)cc1 (relative stereo) [Example 63]
8.52	c1ccc([C@H]2CN3CCC[C@H]3c3cc(OCCCN4CCOCC4)ccc32)nc1 (relative stereo) [Example 60]
8.70	Brc1ccc([C@H]2CN3CCC[C@H]3c3ccc(OCCCN4CCCCC4)cc32)cc1 (relative stereo) [Example 42, Trans-6-(4-Bromo-phenyl)-8-(3-piperidin-1-yl-propoxy)-1,2,3,5,6,10b-hexahydro-pyrrolo[2,1-a]isoquinoline]
8.52	c1cc([C@H]2CN3CCC[C@H]3c3cc(OCCCN4CCOCC4)ccc32)cs1 (relative stereo) [Example 56]
8.70	N#Cc1cccc([C@H]2CN3CCC[C@H]3c3cc(OCCCN4CCOCC4)ccc32)c1 (relative stereo) [Example 58]
9.00	Clc1ccc([C@H]2CN3CCC[C@H]3c3cc(OCCCN4CCCCC4)ccc32)cc1Cl (relative stereo) [Example 6B, Trans-6-(3,4-Dichloro-phenyl)-9-(3-piperidin-1-yl-propoxy)-1,2,3,5,6,10b-hexahydro-pyrrolo[2,1-a]isoquinoline]
7.04	Clc1ccccc1[C@@H]1CN2CCC[C@H]2c2cccc(OCCCN3CCCCC3)c21 (relative stereo) [Example 12C, Cis-6-(2-Chloro-phenyl)-7-(3-piperidin-1-yl-propoxy)-1,2,3,5,6,10b-hexahydro-pyrrolo[2,1-a]isoquinoline]
7.12	Clc1ccc([C@H]2CN3CCC[C@H]3c3cccc(OCCCN4CCCCC4)c32)cc1Cl (relative stereo) [Example 6C]
6.70	Fc1ccc([C@@H]2CN3CCC[C@H]3c3cccc(OCCCN4CCCCC4)c32)cc1 (relative stereo) [Example 14C]
8.40	c1ncc([C@H]2CN3CCC[C@H]3c3cc(OCCCN4CCOCC4)ccc32)s1 (relative stereo) [Example 52]
9.00	Cc1ccc([C@@H]2CN3CCC[C@H]3c3cc(OCCCN4CCCCC4)ccc32)cc1 (relative stereo) [Example 5B, Trans-9-(3-Piperidine-1-yl-propoxy)-6-p-tolyl-1,2,3,5,6,10b-hexahydro-pyrrolo[2,1-a]isoquinoline]
8.52	COc1ccc([C@H]2CN3CCC[C@H]3c3cc(OCCCN4CCOCC4)ccc32)cc1Cl (relative stereo) [Example 64]
8.52	Oc1ccc([C@@H]2CN3CCC[C@H]3c3cc(OCCCN4CCOCC4)ccc32)cn1 (relative stereo) [Example 51A, Cis-5-[9-(3-Morpholin-4-yl-propoxy)-1,2,3,5,6,10b-hexahydro-pyrrolo[2,1-a]isoquinolin-6-yl]-pyridin-2-ol]
8.70	c1cncc([C@H]2CN3CCC[C@H]3c3cc(OCCCN4CCOCC4)ccc32)c1 (relative stereo) [Example 59]

Molecular target: T2, human H3 receptor (SK-N-MC cells) (Homo sapiens, UniProt Q9Y5N1)
T2 construct: expressed in transfected cells; host or cells: SK-N-MC sublines with CRE-beta-galactosidase reporter
T2 sequence (Q9Y5N1 whole entry): as above
Experiment: Cyclic AMP accumulation (β-galactosidase reporter, Schild analysis vs histamine)
Format: cell-based
Conditions: not given

Kb [nM]	SMILES
0.1	c1ccc([C@H]2CN3CCC[C@H]3c3cc(OCCCN4CCCCC4)ccc32)nc1 (relative stereo) [Example 25]

Same assay, conditions: read-out: H3 pA2 (converted)

Kb [nM]	SMILES
0.631	Clc1ccccc1[C@H]1CN2CCC[C@H]2c2cc(OCCCN3CCCCC3)ccc21 (relative stereo) [Example 12B, Trans-6-(2-Chloro-phenyl)-9-(3-piperidin-1-yl-propoxy)-1,2,3,5,6,10b-hexahydro-pyrrolo[2,1-a]isoquinoline]
0.794	Fc1ccc([C@H]2CN3CCC[C@H]3c3cc(OCCCN4CCCCC4)ccc32)cc1 (relative stereo) [Example 14B, Trans-6-(4-Fluoro-phenyl)-9-(3-piperidin-1-yl-propoxy)-1,2,3,5,6,10b-hexahydro-pyrrolo[2,1-a]isoquinoline]
6.31	FC(F)(F)c1ccc([C@@H]2CN3CCC[C@H]3c3cc(OCCCN4CCCCC4)ccc32)cc1 (relative stereo) [Example 7B, Trans-9-(3-Piperidin-1-yl-propoxy)-6-(4-trifluoromethyl-phenyl)-1,2,3,5,6,10b-hexahydro-pyrrolo[2,1-a]isoquinoline]
